Source: PubChem BioAssay AID248 (DTP/NCI, 2004)
Where “and” joins values, the source holds several entries; their conditions need not be identical. Identical values can stand only once. Toxic doses and inconclusive results are not listed. Cut-off read from the data, not from the text of the source: active = T/C of 150% or more; inactive = T/C below 125%.

Test system: L1210 leukemia ip in BDF1 mice, survival T/C
Test: NCI In Vivo Anticancer Drug Screen. Data for tumor model L1210 Leukemia (intraperitoneal) in B6D2F1 (BDF1) mice
Settings: endpoint: mean survival time, higher = longer survival
Outline: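 Value reflects the ratio of survival in compound-treated mice to survival in vehicle-treated controls, with both groups carrying the same transplanted tumor.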

[1] = dose: 100.0 mg/kg/injection, schedule: Q01DX001 (ip), vehicle: saline
[2] = dose: 200.0 mg/kg/injection, schedule: Q01DX001 (ip), vehicle: saline
[3] = dose: 400.0 mg/kg/injection, schedule: Q01DX001 (ip), vehicle: saline
[4] = dose: 100.0 mg/kg/injection, schedule: Q04DX003 (ip), vehicle: Klucel (hydroxypropylcellulose) (HPC)
[5] = dose: 200.0 mg/kg/injection, schedule: Q04DX003 (ip), vehicle: Klucel (hydroxypropylcellulose) (HPC)
[6] = dose: 100.0 mg/kg/injection, schedule: Q01DX001 (ip), vehicle: carboxymethylcellulose (CMC)
[7] = dose: 200.0 mg/kg/injection, schedule: Q01DX001 (ip), vehicle: carboxymethylcellulose (CMC)
[8] = dose: 400.0 mg/kg/injection, schedule: Q01DX001 (ip), vehicle: carboxymethylcellulose (CMC)
[9] = dose: 100.0 mg/kg/injection, schedule: Q04DX003 (ip), vehicle: saline with Tween-80
[10] = dose: 200.0 mg/kg/injection, schedule: Q04DX003 (ip), vehicle: saline with Tween-80
[11] = dose: 400.0 mg/kg/injection, schedule: Q04DX003 (ip), vehicle: saline with Tween-80
[12] = dose: 50.0 mg/kg/injection, schedule: Q01DX009 (ip), vehicle: Klucel (hydroxypropylcellulose) (HPC)
[13] = dose: 100.0 mg/kg/injection, schedule: Q01DX009 (ip), vehicle: Klucel (hydroxypropylcellulose) (HPC)
[14] = dose: 200.0 mg/kg/injection, schedule: Q01DX009 (ip), vehicle: Klucel (hydroxypropylcellulose) (HPC)
[15] = dose: 400.0 mg/kg/injection, schedule: Q04DX003 (ip), vehicle: Klucel (hydroxypropylcellulose) (HPC)

Measured: T/C

O=C1CC23CCC(=O)C2(CC3)C1 (centres undefined)
inactive: dose: 75.0 mg/kg/injection, schedule: Q04DX002 (ip), vehicle: saline 103 % of control | dose: 150.0 mg/kg/injection, schedule: Q04DX002 (ip), vehicle: saline 103 % of control | dose: 300.0 mg/kg/injection, schedule: Q04DX002 (ip), vehicle: saline 100 % of control

O=c1c(N=Nc2ccc(Br)cc2)c(O)n(-c2ccc(Cl)cc2)c(=S)n1-c1ccccc1
inactive: dose: 37.5 mg/kg/injection, schedule: Q01DX001 (ip), vehicle: Klucel (hydroxypropylcellulose) (HPC) 107 % of control | dose: 75.0 mg/kg/injection, schedule: Q01DX001 (ip), vehicle: Klucel (hydroxypropylcellulose) (HPC) 108 % of control | dose: 150.0 mg/kg/injection, schedule: Q01DX001 (ip), vehicle: Klucel (hydroxypropylcellulose) (HPC) 104 % of control

CC(=O)Oc1ccc(/C=C/C(=O)O)cc1OC(C)=O
inactive: dose: 25.0 mg/kg/injection, schedule: Q04DX002 (ip), vehicle: saline with Tween-80 101 % of control | dose: 50.0 mg/kg/injection, schedule: Q04DX002 (ip), vehicle: saline with Tween-80 97 % of control | dose: 100.0 mg/kg/injection, schedule: Q04DX002 (ip), vehicle: saline with Tween-80 94 % of control | dose: 200.0 mg/kg/injection, schedule: Q04DX002 (ip), vehicle: saline with Tween-80 87 % of control | dose: 400.0 mg/kg/injection, schedule: Q04DX002 (ip), vehicle: saline with Tween-80 93 % of control

Nc1ncnc2c1ncn2C1CC(O)C(O)CO1 (centres undefined)
inactive: [1] 105 % of control | [2] 106 % of control | [3] 105 % of control

Cc1ccc(NC(=S)Nc2ccccc2)cc1
inactive: [4] 97 % of control | [5] 107 % of control

CSC1c2ccccc2-c2ccccc21
inactive: dose: 44.0 mg/kg/injection, schedule: Q01DX001 (ip), vehicle: carboxymethylcellulose (CMC) 100 % of control | dose: 44.0 mg/kg/injection, schedule: Q01DX001 (ip), vehicle: other 105 % of control | dose: 66.0 mg/kg/injection, schedule: Q01DX001 (ip), vehicle: carboxymethylcellulose (CMC) 94 % of control and 105 % of control | dose: 66.0 mg/kg/injection, schedule: Q01DX001 (ip), vehicle: other 97 % of control | [6] 106 % of control and 111 % of control | dose: 100.0 mg/kg/injection, schedule: Q01DX001 (ip), vehicle: other 100 % of control | dose: 150.0 mg/kg/injection, schedule: Q01DX001 (ip), vehicle: carboxymethylcellulose (CMC) 95 % of control and 100 % of control | dose: 150.0 mg/kg/injection, schedule: Q01DX001 (ip), vehicle: other 97 % of control | [7] 104 % of control | [8] 107 % of control

O=S1(=O)CC(N2CCCCC2)C1CN1CCCCC1 (centres undefined)
inactive: dose: 75.0 mg/kg/injection, schedule: Q01DX001 (ip), vehicle: saline 97 % of control | dose: 150.0 mg/kg/injection, schedule: Q01DX001 (ip), vehicle: saline 89 % of control

NC(Cc1cccs1)C(=O)O (centres undefined)
inactive: [6] 96 % of control | dose: 100.0 mg/kg/injection, schedule: Q01DX009 (ip), vehicle: saline with Tween-80 101 % of control | [9] 99 % of control | [7] 101 % of control | dose: 200.0 mg/kg/injection, schedule: Q01DX009 (ip), vehicle: saline with Tween-80 104 % of control | [10] 99 % of control | dose: 250.0 mg/kg/injection, schedule: Q01DX Z (ip), vehicle: carboxymethylcellulose (CMC) 89 % of control | [8] 101 % of control | dose: 400.0 mg/kg/injection, schedule: Q01DX009 (ip), vehicle: saline with Tween-80 97 % of control | [11] 96 % of control | dose: 1000.0 mg/kg/injection, schedule: Q01DX Z (ip), vehicle: carboxymethylcellulose (CMC) 92 % of control

O=[N+]([O-])C12CCC(c3ccccc31)c1ccccc12
inactive: dose: 100.0 mg/kg/injection, schedule: Q04DX002 (ip), vehicle: gum acacia 103 % of control | dose: 200.0 mg/kg/injection, schedule: Q04DX002 (ip), vehicle: gum acacia 101 % of control | dose: 400.0 mg/kg/injection, schedule: Q04DX002 (ip), vehicle: gum acacia 92 % of control

COC1(OC)C2(Cl)CC(=O)C3CC(=O)C3C1(Cl)C(Cl)=C2Cl (centres undefined)
inactive: [12] 92 % of control | [1] 100 % of control | [13] 94 % of control | [2] 94 % of control | [14] 102 % of control | [3] 101 % of control

N=C(N)c1ccc(OCCCCCCOc2ccc(C(=N)N)cc2)cc1
inactive: dose: 5.0 mg/kg/injection, schedule: Q01DX001 (ip), vehicle: saline 100 % of control | dose: 10.0 mg/kg/injection, schedule: Q01DX001 (ip), vehicle: saline 100 % of control | dose: 20.0 mg/kg/injection, schedule: Q01DX001 (ip), vehicle: saline 103 % of control | dose: 40.0 mg/kg/injection, schedule: Q01DX001 (ip), vehicle: saline 101 % of control | dose: 80.0 mg/kg/injection, schedule: Q01DX001 (ip), vehicle: saline 92 % of control

COC(=O)C1CCC(N)CC1 (centres undefined)
inactive: [1] 106 % of control and 105 % of control | [2] 104 % of control and 94 % of control | [3] 108 % of control and 96 % of control

CCC(N)(CO)CO
inactive: [9] 98 % of control | [10] 95 % of control | [11] 95 % of control

Cc1cc(C)nc(NC(=O)COc2ccc(Cl)cc2)c1
inactive: [12] 97 % of control | [13] 100 % of control | [4] 101 % of control | [14] 93 % of control | [5] 97 % of control

COC(=O)C1=COC(C)C2CN3CCc4c([nH]c5ccccc45)C3CC12 (centres undefined)
inactive: dose: 25.0 mg/kg/injection, schedule: Q04DX003 (ip), vehicle: Klucel (hydroxypropylcellulose) (HPC) 96 % of control | dose: 50.0 mg/kg/injection, schedule: Q04DX003 (ip), vehicle: Klucel (hydroxypropylcellulose) (HPC) 98 % of control | dose: 100.0 mg/kg/injection, schedule: Q04DX002 (ip), vehicle: Klucel (hydroxypropylcellulose) (HPC) 98 % of control and 95 % of control | [4] 98 % of control | dose: 200.0 mg/kg/injection, schedule: Q04DX002 (ip), vehicle: Klucel (hydroxypropylcellulose) (HPC) 91 % of control and 102 % of control | [5] 95 % of control | dose: 400.0 mg/kg/injection, schedule: Q04DX002 (ip), vehicle: Klucel (hydroxypropylcellulose) (HPC) 87 % of control and 106 % of control | [15] 100 % of control

N#CCC(CC#N)C(c1cccc2ccccc12)c1cccc2ccccc12
inactive: dose: 75.0 mg/kg/injection, schedule: Q04DX002 (ip), vehicle: Klucel (hydroxypropylcellulose) (HPC) 94 % of control | dose: 150.0 mg/kg/injection, schedule: Q04DX002 (ip), vehicle: Klucel (hydroxypropylcellulose) (HPC) 101 % of control | dose: 300.0 mg/kg/injection, schedule: Q04DX002 (ip), vehicle: Klucel (hydroxypropylcellulose) (HPC) 90 % of control

Cc1ccc(NC(Nc2ccc(C)c(Cl)c2)C(Cl)(Cl)Cl)cc1Cl
inactive: [13] 96 % of control | [4] 92 % of control | [14] 92 % of control | [5] 118 % of control | dose: 400.0 mg/kg/injection, schedule: Q01DX009 (ip), vehicle: Klucel (hydroxypropylcellulose) (HPC) 89 % of control | [15] 103 % of control

CCC(CC)c1cccc2c(C(CC)CC)cccc12
inactive: [1] 98 % of control | [2] 96 % of control | [3] 96 % of control
